Laboratory results: article PMC7587356, “High-Throughput Screening for Inhibitors of the SARS-CoV-2 Protease Using a FRET-Biosensor” (Molecules, 2020)
Like-named read-outs stand apart in the source and are kept apart here.

What was measured:
SARS-CoV-2 3CLpro [1] = molecular target: T1, SARS-CoV-2 3CLpro (Severe acute respiratory syndrome coronavirus 2, UniProt P0DTD1); assay: biochemical; assay type: biochemical
SARS-CoV-2 3CLpro [2] = molecular target: T1, SARS-CoV-2 3CLpro; assay: biochemical; assay type: biochemical; details: for inhibition at 5 µM: 4 h
[3] = with 0.01% Triton X-100; mean ± SD of triplicate; 4 h, 30 °C; read-out: A) EC50 with Triton X-100
[4] = without Triton X-100; mean ± SD of triplicate; 4 h, 30 °C; read-out: B) EC50 without Triton X-100
[5] = sheet LOPAC_screen_w_protease, primary screen at 5 µM, mean of two replicates, read-out: mean (LOPAC screen with protease)
[6] = sheet LOPAC_screen_w_protease, primary screen at 5 µM, replicate 1, read-out: Replicate_1 (LOPAC screen with protease)
[7] = sheet LOPAC_screen_w_protease, primary screen at 5 µM, replicate 2, read-out: Replicate_2 (LOPAC screen with protease)
[8] = read-out: Replicate_1 (LOPAC screen with protease)
[9] = read-out: Replicate_2 (LOPAC screen with protease)
[10] = read-out: mean (LOPAC screen with protease)
[11] = EC50 with Triton X-100 / EC50 without Triton X-100, ratio greater than 2 suggests aggregation-based inhibitor
[12] = sheet LOPAC_screen_w_protease, primary screen at 5 µM, mean of two replicates
[13] = sheet LOPAC_screen_w_protease, primary screen at 5 µM, replicate 1
[14] = sheet LOPAC_screen_w_protease, primary screen at 5 µM, replicate 2
[15] = with 0.01% Triton X-100, read-out: EC50

Structure (SMILES) | Ratio (A/B) (SARS-CoV-2 3CLpro [1]) | EC50 (SARS-CoV-2 3CLpro [1]; [3]) | EC50 (SARS-CoV-2 3CLpro [1]; [4]) | further results
CN(N=O)c1cc(O)ccc1O [Dephostatin, reference compound] | 2.2 | 5030 ± 1220 nM | 2280 ± 619 nM | inhibition at 5 µM (SARS-CoV-2 3CLpro [2]; [5]): 35.5%; inhibition at 5 µM (SARS-CoV-2 3CLpro [2]; [6]): 36.5%; inhibition at 5 µM (SARS-CoV-2 3CLpro [2]; [7]): 34.6%
O=c1cc(O)cc(/C=C/c2ccc(O)c(O)c2)o1 [Hispidin, reference compound] | 2.8 |  |  | EC50 (SARS-CoV-2 3CLpro [1]; A) EC50 with Triton X-100): 5000 ± 554 nM; EC50 (SARS-CoV-2 3CLpro [1]; B) EC50 without Triton X-100): 1810 ± 828 nM; inhibition at 5 µM (SARS-CoV-2 3CLpro [2]; [8]): 46.3%; inhibition at 5 µM (SARS-CoV-2 3CLpro [2]; [9]): 38.9%; inhibition at 5 µM (SARS-CoV-2 3CLpro [2]; [10]): 42.6%
NC(Cc1cc(O)c(O)cc1O)C(=O)O (racemic) [6-Hydroxy-dl-DOPA, reference compound] |  | 1320 ± 118 nM | 652 ± 259 nM | Ratio (A/B) (SARS-CoV-2 3CLpro [1]; [11]): 2.0; mean (LOPAC screen with protease) (SARS-CoV-2 3CLpro [2]; [12]): 66.3118; Replicate_1 (LOPAC screen with protease) (SARS-CoV-2 3CLpro [2]; [13]): 69.7112; Replicate_2 (LOPAC screen with protease) (SARS-CoV-2 3CLpro [2]; [14]): 62.9123
Cc1ccc(S(=O)(=O)N[C@@H](CCCCN)C(=O)CCl)cc1 [TLCK, Tosyl-L-Lys chloromethyl ketone] |  | 10600 ± 881 nM | > 20000 nM | EC50 (SARS-CoV-2 3CLpro [1]; [15]): 10600 nM
N=C1Sc2ccccc2C2=NCCCN12 [PD 404,182, reference compound] | 1.4 |  | 60 ± 12 nM | EC50 (SARS-CoV-2 3CLpro [1]; [15]): 81 nM; inhibition at 5 µM (SARS-CoV-2 3CLpro [2]; [5]): 101%; inhibition at 5 µM (SARS-CoV-2 3CLpro [2]; [6]): 101%; inhibition at 5 µM (SARS-CoV-2 3CLpro [2]; [7]): 100%
N[C@@H](CCC(=O)N[C@@H](CSN=O)C(=O)NCC(=O)O)C(=O)O [S-Nitrosoglutathione, reference compound] | 1.5 |  |  | EC50 (SARS-CoV-2 3CLpro [1]; A) EC50 with Triton X-100): 2290 ± 245 nM; EC50 (SARS-CoV-2 3CLpro [1]; B) EC50 without Triton X-100): 1490 ± 627 nM; inhibition at 5 µM (SARS-CoV-2 3CLpro [2]; [8]): 44.1%; inhibition at 5 µM (SARS-CoV-2 3CLpro [2]; [9]): 41.7%; inhibition at 5 µM (SARS-CoV-2 3CLpro [2]; [10]): 42.9%
CC(=O)NCCc1ccc(O)c(O)c1 [N-Acetyldopamine] | 1.8 | 2650 ± 550 nM | 1450 ± 222 nM | 
CN=c1nc(-c2ccccc2)n(-c2ccccc2)s1 [SCH-202676] |  | 274 ± 73 nM | 41 ± 8 nM | Ratio (A/B) (SARS-CoV-2 3CLpro [1]; [11]): 6.7; reduction in levels of inhibition upon addition of 0.01% Triton X-100 (SARS-CoV-2 3CLpro [1]; with vs without 0.01% Triton X-100): > 2 fold
CC1(NCC(O)COc2cccc3[nH]ccc23)CCC(C(C)(C)NC(=O)CBr)CC1 (racemic) [(±)-Pindobind, reference compound] |  | 4690 ± 3320 nM | > 20000 nM | mean (LOPAC screen with protease) (SARS-CoV-2 3CLpro [2]; [12]): 33.6627; Replicate_1 (LOPAC screen with protease) (SARS-CoV-2 3CLpro [2]; [13]): 33.8938; Replicate_2 (LOPAC screen with protease) (SARS-CoV-2 3CLpro [2]; [14]): 33.4316
NC[C@@H]1O[C@H](C23CC4CC(CC(C4)C2)C3)Cc2c1ccc(O)c2O [A-77636] | 1.6 |  |  | EC50 (SARS-CoV-2 3CLpro [1]; read-out: A) EC50 with Triton X-100): 3790 ± 630 nM; EC50 (SARS-CoV-2 3CLpro [1]; read-out: B) EC50 without Triton X-100): 2340 ± 783 nM
N=c1c[n+](N2CCOCC2)[n-]o1 [3-Morpholinosydnonimine] | 1.1 | 5660 ± 445 nM | 4970 ± 2380 nM | 
CCOC(=O)[C@]12CC1/C(=N\O)c1ccccc1O2 (mixture of isomers) [CPCCOEt, reference compound] |  | > 20000 nM | > 20000 nM | inhibition at 5 µM (SARS-CoV-2 3CLpro [2]; [5]): 26.9%; inhibition at 5 µM (SARS-CoV-2 3CLpro [2]; [6]): 0.406%; inhibition at 5 µM (SARS-CoV-2 3CLpro [2]; [7]): 53.3%
CC(Cc1ccc(O)c(O)c1)C(C)Cc1ccc(O)c(O)c1 (stereo not shown) [Nordihydroguaiaretic acid] | 1.3 | 270 ± 58 nM | 214 ± 65 nM | 
O=C(N[C@@H](Cc1ccccc1)C(=O)CCl)OCc1ccccc1 [ZPCK, Z-L-Phe chloromethyl ketone] | 1.7 | 234 ± 85 nM | 136 ± 21 nM | EC50 (SARS-CoV-2 3CLpro [1]; [15]): 230 nM
CN1CCc2cc(O)c(O)cc2C(c2ccccc2)C1 (stereo not shown) [SKF 75670] |  | 17800 ± 8360 nM | > 20000 nM | 
CN1CCc2c(cc(O)c(O)c2Cl)C(c2cccc(Cl)c2)C1 (stereo not shown) [SKF 83565] |  | > 20000 nM | 6030 ± 3630 nM | 
Oc1cc(O)c2c(c1)O[C@H](c1ccc(O)c(O)c1)[C@@H](O)C2 [(+)-Catechin] |  | > 20000 nM | 11300 ± 6550 nM | 
Cc1ccc(S(=O)(=O)N[C@@H](Cc2ccccc2)C(=O)CCl)cc1 [TPCK, Tosyl-L-Phe chloromethyl ketone] | 1.8 | 1740 ± 34 nM | 985 ± 175 nM | EC50 (SARS-CoV-2 3CLpro [1]; [15]): 1740 nM
Oc1ccccc1O [Pyrocatechol, reference compound] | 1.0 | 4040 ± 1420 nM | 4090 ± 1220 nM | mean (LOPAC screen with protease) (SARS-CoV-2 3CLpro [2]; [12]): 52.6956; Replicate_1 (LOPAC screen with protease) (SARS-CoV-2 3CLpro [2]; [13]): 53.9412; Replicate_2 (LOPAC screen with protease) (SARS-CoV-2 3CLpro [2]; [14]): 51.45
O=Nc1ccc2oc(=O)ccc2c1 [6-Nitroso-1,2-benzopyrone, reference compound] | 1.6 | 882 ± 110 nM | 559 ± 123 nM | mean (LOPAC screen with protease) (SARS-CoV-2 3CLpro [2]; [12]): 91.133; Replicate_1 (LOPAC screen with protease) (SARS-CoV-2 3CLpro [2]; [13]): 92.4944; Replicate_2 (LOPAC screen with protease) (SARS-CoV-2 3CLpro [2]; [14]): 89.7716
O=C(O)Cc1ccc(O)c(O)c1 [DOPAC] | 1.3 | 3090 ± 226 nM | 2460 ± 117 nM | 
